≈ marks a conversion by molar mass, not a printed value.

The first data set has as its system M. tb (strain H37Rv). The data set can be described thus: MIC90 against replicating M.tb (MABA). In kind it is cell-based, Mycobacterium tuberculosis. As to conditions: Mycobacterium tuberculosis, aerobic (replicating) conditions, 90% inhibition of growth.
In the case of `COc1cccc(C(c2cc3cc(C#N)ccc3nc2OC)C(O)(CCN(C)C)c2cncc(C)c2)c1OC` (centres unmarked) [Compound 29], the MIC90 came to 4.2 µg/mL (≈ 7.98 µM).
For the compound `COc1cccc(C(c2cc3cc(Br)ccc3nc2OC)C(O)(CCN(C)C)c2cncc(C)c2)c1F` (centres unmarked) [Compound 30], the MIC90 worked out at 0.16 µg/mL (≈ 0.281 µM).
For the compound `COc1cccc(C(c2cc3cc(C#N)ccc3nc2OC)C(O)(CCN(C)C)c2cncc(C)c2)c1F` (centres unmarked) [Compound 31], the MIC90 stood at 3.3 µg/mL (≈ 6.41 µM).
`COc1cccc(C(c2cc3cc(Br)ccc3nc2OC)C(O)(CCN(C)C)c2cc(C)cnc2C)c1F` (centres unmarked) [Compound 32] returned an MIC90 of 0.07 µg/mL (≈ 0.12 µM).
Same read-out and setting: next, `COc1cccc(C(c2cc3cc(Br)ccc3nc2OC)C(O)(CCN(C)C)c2cnc(C)c(C)c2)c1OC` (centres unmarked) [Compound 34]: 0.07 µg/mL (≈ 0.118 µM); `COc1cccc(C(c2cc3cc(Br)ccc3nc2OC)C(O)(CCN(C)C)c2cnc(C)c(C)c2)c1F` (centres unmarked) [Compound 35]: 0.31 µg/mL (≈ 0.532 µM); `COc1cccc(C(c2cc3cc(C#N)ccc3nc2OC)C(O)(CCN(C)C)c2cnc(C)c(C)c2)c1F` (centres unmarked) [Compound 36]: 2.4 µg/mL (≈ 4.54 µM).
`COc1cccc(C(c2cc3cc(Br)ccc3nc2OC)C(O)(CCN(C)C)c2cnc(C)cc2C)c1F` (centres unmarked) [Compound 37]: the MIC90 amounted to 0.53 µg/mL (≈ 0.91 µM).
Turning to `COc1nc2ccc(C#N)cc2cc1C(c1cccc2c1OCO2)C(O)(CCN(C)C)c1cccnc1OC` (centres unmarked) [Compound 42], the MIC90 is 2.1 µg/mL (≈ 3.99 µM).
With `COc1ccc(C(O)(CCN(C)C)C(c2cc3cc(Br)ccc3nc2OC)c2cccc(OC)c2OC)cn1` (centres unmarked) [Compound 43], the MIC90 came out at 0.28 µg/mL (≈ 0.469 µM).
The compound `COc1ccc(C(O)(CCN(C)C)C(c2cc3cc(C#N)ccc3nc2OC)c2cccc(OC)c2OC)cn1` (centres unmarked) [Compound 44] gave an MIC90 of 2.1 µg/mL (≈ 3.87 µM).
`COc1ccc(C(O)(CCN(C)C)C(c2cc3cc(Br)ccc3nc2OC)c2cccc(OC)c2F)cn1` (centres unmarked) [Compound 45] returned an MIC90 of 0.12 µg/mL (≈ 0.205 µM).
Regarding `COc1cnc(OC)c(C(O)(CCN(C)C)C(c2cc3cc(Br)ccc3nc2OC)c2cccc(OC)c2F)c1` (centres unmarked) [Compound 46], the MIC90 is 0.09 µg/mL (≈ 0.146 µM).
For `COc1cc(C(O)(CCN(C)C)C(c2cc3cc(Br)ccc3nc2OC)c2cccc(OC)c2F)cnc1OC` (centres unmarked) [Compound 47], the MIC90 amounted to 0.07 µg/mL (≈ 0.114 µM).
Still for that read-out and setting: under `COc1cccc(C(c2cc3cc(Br)ccc3nc2OC)C(O)(CCN(C)C)c2ccncc2C)c1F` (centres unmarked) [Compound 50] stands 1 µg/mL (≈ 1.76 µM); under `COc1cccc(C(c2cc3cc(Br)ccc3nc2OC)C(O)(CCN(C)C)c2ccnc(C)c2)c1F` (centres unmarked) [Compound 51], 0.47 µg/mL (≈ 0.827 µM); under `COc1cccc(C(c2cc3cc(C#N)ccc3nc2OC)C(O)(CCN(C)C)c2ccnc(C)c2)c1F` (centres unmarked) [Compound 52], more than 5 µg/mL.
Still for that read-out and setting: under `COc1nc2ccc(Br)cc2cc1C(c1cccc(C)c1)C(O)(CCN(C)C)c1cc(C)nc(C)c1` (centres unmarked) [Compound 53] stands 0.11 µg/mL (≈ 0.201 µM); under `COc1cccc(C(c2cc3cc(Br)ccc3nc2OC)C(O)(CCN(C)C)c2cc(C)nc(C)c2)c1F` (centres unmarked) [Compound 54], 0.11 µg/mL (≈ 0.189 µM); under `CCc1cc(C(O)(CCN(C)C)C(c2cc3cc(Br)ccc3nc2OC)c2cccc(OC)c2F)cc(CC)n1` (centres unmarked) [Compound 58], 0.03 µg/mL (≈ 0.0491 µM).
`CCc1cc(C(O)(CCN(C)C)C(c2cc3cc(C#N)ccc3nc2OC)c2cccc(OC)c2F)cc(CC)n1` (centres unmarked) [Compound 59] had an MIC90 of 0.19 µg/mL (≈ 0.341 µM).
`COc1cc(C(O)(CCN(C)C)C(c2cc3cc(Br)ccc3nc2OC)c2cccc(OC)c2F)c(OC)cn1` (centres unmarked) [Compound 60] yielded an MIC90 of 0.11 µg/mL (≈ 0.179 µM).

The data set is the same for the next values; noted with them: aerobic (replicating) conditions, 90% inhibition of growth.
Turning to “1-(7-bromo-3-methoxynaphthalen-2-yl)-1-(2,3-dimethoxyphenyl)-4-(dimethylamino)-2-(2,6-dimethylpyridin-4-yl)butan-2-ol [Compound 56]”, the “MIC90 MABA” value is recorded as 0.04 µg/mL.

Tested on in the next data set: not listed separately
Put plainly: in vitro. Conditions: human, microsomes.
Take `COc1cnc(OC)c(C(O)(CCN(C)C)C(c2cc3cc(Br)ccc3nc2OC)c2cccc(OC)c2F)c1` (centres unmarked) [Compound 46]: the intrinsic clearance (microsomal CLint) was found to be 7 µL/min/mg.
For `CCc1cc(C(O)(CCN(C)C)C(c2cc3cc(Br)ccc3nc2OC)c2cccc(OC)c2F)cc(CC)n1` (centres unmarked) [Compound 58], the microsomal CLint was 8 µL/min/mg.
The compound `CCc1cc(C(O)(CCN(C)C)C(c2cc3cc(C#N)ccc3nc2OC)c2cccc(OC)c2F)cc(CC)n1` (centres unmarked) [Compound 59] came in with a microsomal CLint of 10 µL/min/mg.
The compound `COc1cc(C(O)(CCN(C)C)C(c2cc3cc(Br)ccc3nc2OC)c2cccc(OC)c2F)c(OC)cn1` (centres unmarked) [Compound 60] had a microsomal CLint of 7 µL/min/mg.

The test system of a further data set is M. tb (strain H37Rv). The data set can be described thus: MIC90 against non-replicating M.tb (LORA). As to conditions: M.tb H37Rv, non-replicating conditions; 90% inhibition of growth. The class given is cell-based, Mycobacterium tuberculosis. As to the method: In these assays, 1 is a potent inhibitor, with MICs of 0.08 and 0.12 µg/mL, respectively. Replacement of the naphthalene C-unit of 1 with various pyridyls produced analogues of considerably lower lipophilicity, with clogP values ranging from 6.89 down to 2.98.
“1-(7-bromo-3-methoxynaphthalen-2-yl)-1-(2,3-dimethoxyphenyl)-4-(dimethylamino)-2-(2,6-dimethylpyridin-4-yl)butan-2-ol [Compound 56]”: the “MIC90 LORA” value was found to be 0.07 µg/mL.

The same data set, now with this note: Mycobacterium tuberculosis, H37RV, read-out: MIC90 LORA.
On to `COc1cccc(C(c2cc3cc(C#N)ccc3nc2OC)C(O)(CCN(C)C)c2cncc(C)c2)c1OC` (centres unmarked) [Compound 29], for which the MIC90 turned out to be 3.8 µg/mL (≈ 7.22 µM).
Turning to `COc1cccc(C(c2cc3cc(Br)ccc3nc2OC)C(O)(CCN(C)C)c2cncc(C)c2)c1F` (centres unmarked) [Compound 30], the MIC90 is 0.2 µg/mL (≈ 0.352 µM).
Turning to `COc1cccc(C(c2cc3cc(C#N)ccc3nc2OC)C(O)(CCN(C)C)c2cncc(C)c2)c1F` (centres unmarked) [Compound 31], the MIC90 worked out at 2.5 µg/mL (≈ 4.86 µM).
In the case of `COc1cccc(C(c2cc3cc(Br)ccc3nc2OC)C(O)(CCN(C)C)c2cc(C)cnc2C)c1F` (centres unmarked) [Compound 32], the MIC90 amounted to 0.23 µg/mL (≈ 0.395 µM).
For `COc1cccc(C(c2cc3cc(Br)ccc3nc2OC)C(O)(CCN(C)C)c2cnc(C)c(C)c2)c1OC` (centres unmarked) [Compound 34], the MIC90 stood at 0.14 µg/mL (≈ 0.235 µM).
In the case of `COc1cccc(C(c2cc3cc(Br)ccc3nc2OC)C(O)(CCN(C)C)c2cnc(C)c(C)c2)c1F` (centres unmarked) [Compound 35], the MIC90 was 0.29 µg/mL (≈ 0.498 µM).
Same read-out and setting: next, `COc1cccc(C(c2cc3cc(C#N)ccc3nc2OC)C(O)(CCN(C)C)c2cnc(C)c(C)c2)c1F` (centres unmarked) [Compound 36]: 3.3 µg/mL (≈ 6.24 µM); `COc1cccc(C(c2cc3cc(Br)ccc3nc2OC)C(O)(CCN(C)C)c2cnc(C)cc2C)c1F` (centres unmarked) [Compound 37]: 0.29 µg/mL (≈ 0.498 µM); `COc1ccc(C(O)(CCN(C)C)C(c2cc3cc(Br)ccc3nc2OC)c2cccc(OC)c2OC)cn1` (centres unmarked) [Compound 43]: 0.54 µg/mL (≈ 0.905 µM).
Still for that read-out and setting: under `COc1ccc(C(O)(CCN(C)C)C(c2cc3cc(Br)ccc3nc2OC)c2cccc(OC)c2F)cn1` (centres unmarked) [Compound 45] stands 0.08 µg/mL (≈ 0.137 µM).
Take `COc1cnc(OC)c(C(O)(CCN(C)C)C(c2cc3cc(Br)ccc3nc2OC)c2cccc(OC)c2F)c1` (centres unmarked) [Compound 46]: the MIC90 worked out at 0.04 µg/mL (≈ 0.0651 µM).
On to `COc1cc(C(O)(CCN(C)C)C(c2cc3cc(Br)ccc3nc2OC)c2cccc(OC)c2F)cnc1OC` (centres unmarked) [Compound 47], for which the MIC90 amounted to 0.11 µg/mL (≈ 0.179 µM).
The same measure, in the same setting: under `COc1cccc(C(c2cc3cc(Br)ccc3nc2OC)C(O)(CCN(C)C)c2ccncc2C)c1F` (centres unmarked) [Compound 50] stands 1.1 µg/mL (≈ 1.93 µM).
As for `COc1cccc(C(c2cc3cc(Br)ccc3nc2OC)C(O)(CCN(C)C)c2ccnc(C)c2)c1F` (centres unmarked) [Compound 51], the MIC90 worked out at 0.58 µg/mL (≈ 1.02 µM).
With `COc1cccc(C(c2cc3cc(C#N)ccc3nc2OC)C(O)(CCN(C)C)c2ccnc(C)c2)c1F` (centres unmarked) [Compound 52], the MIC90 was 3.8 µg/mL (≈ 7.38 µM).
On to `COc1nc2ccc(Br)cc2cc1C(c1cccc(C)c1)C(O)(CCN(C)C)c1cc(C)nc(C)c1` (centres unmarked) [Compound 53], for which the MIC90 was found to be 0.49 µg/mL (≈ 0.893 µM).
For `COc1cccc(C(c2cc3cc(Br)ccc3nc2OC)C(O)(CCN(C)C)c2cc(C)nc(C)c2)c1F` (centres unmarked) [Compound 54], the MIC90 was found to be 0.3 µg/mL (≈ 0.515 µM).
Same read-out and setting: next, `CCc1cc(C(O)(CCN(C)C)C(c2cc3cc(Br)ccc3nc2OC)c2cccc(OC)c2F)cc(CC)n1` (centres unmarked) [Compound 58]: 0.21 µg/mL (≈ 0.344 µM); `CCc1cc(C(O)(CCN(C)C)C(c2cc3cc(C#N)ccc3nc2OC)c2cccc(OC)c2F)cc(CC)n1` (centres unmarked) [Compound 59]: 0.28 µg/mL (≈ 0.503 µM).
Take `COc1cc(C(O)(CCN(C)C)C(c2cc3cc(Br)ccc3nc2OC)c2cccc(OC)c2F)c(OC)cn1` (centres unmarked) [Compound 60]: the MIC90 came out at 0.12 µg/mL (≈ 0.195 µM).

For a further data set, the target named is hERG potassium channel (Homo sapiens, UniProt Q12809). The data set can be described thus: Inhibition of hERG potassium current (patch clamp electrophysiology). As to conditions: 1 µM; manual assay.
Chain of hERG potassium channel (Q12809 whole entry): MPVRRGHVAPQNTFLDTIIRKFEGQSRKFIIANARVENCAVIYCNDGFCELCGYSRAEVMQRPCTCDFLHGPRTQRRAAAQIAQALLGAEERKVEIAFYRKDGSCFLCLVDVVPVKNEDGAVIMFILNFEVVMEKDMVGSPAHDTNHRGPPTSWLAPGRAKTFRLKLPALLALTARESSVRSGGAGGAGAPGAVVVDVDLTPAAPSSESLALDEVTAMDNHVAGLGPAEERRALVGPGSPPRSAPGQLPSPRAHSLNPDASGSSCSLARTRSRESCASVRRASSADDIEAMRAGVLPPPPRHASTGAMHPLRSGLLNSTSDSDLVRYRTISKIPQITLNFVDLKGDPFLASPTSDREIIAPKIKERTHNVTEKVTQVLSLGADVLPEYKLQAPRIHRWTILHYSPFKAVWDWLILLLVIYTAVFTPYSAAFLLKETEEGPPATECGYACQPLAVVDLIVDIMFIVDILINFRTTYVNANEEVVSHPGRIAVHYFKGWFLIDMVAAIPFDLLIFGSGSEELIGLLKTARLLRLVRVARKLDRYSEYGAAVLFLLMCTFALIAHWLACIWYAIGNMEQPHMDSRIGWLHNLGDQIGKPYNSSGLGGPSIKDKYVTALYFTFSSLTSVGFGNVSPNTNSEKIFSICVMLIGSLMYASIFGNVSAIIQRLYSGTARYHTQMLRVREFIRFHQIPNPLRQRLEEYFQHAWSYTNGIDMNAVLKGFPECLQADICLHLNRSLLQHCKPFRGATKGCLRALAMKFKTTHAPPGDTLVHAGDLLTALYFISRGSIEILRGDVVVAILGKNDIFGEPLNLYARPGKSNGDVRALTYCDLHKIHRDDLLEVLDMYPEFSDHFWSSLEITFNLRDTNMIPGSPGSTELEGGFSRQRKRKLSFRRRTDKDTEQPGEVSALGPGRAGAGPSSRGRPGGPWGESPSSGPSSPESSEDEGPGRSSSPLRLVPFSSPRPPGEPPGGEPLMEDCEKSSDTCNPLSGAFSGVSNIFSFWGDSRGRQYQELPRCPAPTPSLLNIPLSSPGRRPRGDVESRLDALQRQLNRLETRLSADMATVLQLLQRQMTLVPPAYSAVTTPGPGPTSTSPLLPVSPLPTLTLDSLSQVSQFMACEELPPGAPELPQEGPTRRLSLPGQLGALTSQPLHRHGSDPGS
Take `CCc1cc(C(O)(CCN(C)C)C(c2cc3cc(C#N)ccc3nc2OC)c2cccc(OC)c2F)cc(CC)n1` (centres unmarked) [Compound 59]: the “hERG % inhibition at 1 µM” value came to 48%/1.

Staying with this data set, now noted: 3 µM; manual or (less accurate) QPatch assay.
Turning to `CCc1cc(C(O)(CCN(C)C)C(c2cc3cc(Br)ccc3nc2OC)c2cccc(OC)c2F)cc(CC)n1` (centres unmarked) [Compound 58], the “hERG % inhibition at 3 µM” value came out at 63%/3.

Staying with this data set, now noted: read-out: hERG IC50; manual patch clamp, 5-concentration dose-response.
As to `COc1cnc(OC)c(C(O)(CCN(C)C)C(c2cc3cc(Br)ccc3nc2OC)c2cccc(OC)c2F)c1` (centres unmarked) [Compound 46], the IC50 is 2.9 µM.
Regarding `COc1cc(C(O)(CCN(C)C)C(c2cc3cc(Br)ccc3nc2OC)c2cccc(OC)c2F)c(OC)cn1` (centres unmarked) [Compound 60], the IC50 was 1.7 µM.

Tested on in the next data set: not listed separately
Put plainly: in vitro. As to conditions: mouse, microsomes.
`COc1cnc(OC)c(C(O)(CCN(C)C)C(c2cc3cc(Br)ccc3nc2OC)c2cccc(OC)c2F)c1` (centres unmarked) [Compound 46] registered a microsomal CLint of 53 µL/min/mg.
Compound `CCc1cc(C(O)(CCN(C)C)C(c2cc3cc(Br)ccc3nc2OC)c2cccc(OC)c2F)cc(CC)n1` (centres unmarked) [Compound 58] had a microsomal CLint of 20 µL/min/mg.
Compound `CCc1cc(C(O)(CCN(C)C)C(c2cc3cc(C#N)ccc3nc2OC)c2cccc(OC)c2F)cc(CC)n1` (centres unmarked) [Compound 59] yielded a microsomal CLint of 27 µL/min/mg.
Still for that read-out and setting: next, `COc1cc(C(O)(CCN(C)C)C(c2cc3cc(Br)ccc3nc2OC)c2cccc(OC)c2F)c(OC)cn1` (centres unmarked) [Compound 60]: 25 µL/min/mg.
